Laboratory results: the supplement of paper PMC10307832

Experiments:
Assay in all cases: relative viability (nuclei count vs DMSO), 5 days (fraction); higher = more cells survive
Fedratinib + Palbociclib = compound: Cc1cnc(Nc2ccc(OCCN3CCCC3)cc2)nc1Nc1cccc(S(=O)(=O)NC(C)(C)C)c1 [Fedratinib] + CC(=O)c1c(C)c2cnc(Nc3ccc(N4CCNCC4)cn3)nc2n(C2CCCC2)c1=O [Palbociclib] (partner 0.5 µM)
Summary of the method: (§1)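 Values are medians from duplicate plates. Each reflects relative viability, defined as the nuclei count of treated wells over that of vehicle wells. Lung cancer cell lines in 1536-well plates were pin-tool dosed one day after seeding with one drug alone or with a fixed anchor-drug dose plus five library-drug doses (not always all listed) in √10 steps, then fixed, stained and imaged at 4× after 5 days.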

Fedratinib + Alpelisib = compound: Cc1cnc(Nc2ccc(OCCN3CCCC3)cc2)nc1Nc1cccc(S(=O)(=O)NC(C)(C)C)c1 [Fedratinib] + Cc1nc(NC(=O)N2CCC[C@H]2C(N)=O)sc1-c1ccnc(C(C)(C)C(F)(F)F)c1 [Alpelisib] (partner 2 µM)
Summary of the method: as §1

GW-2580 + Lapatinib = compound: COC1=CC=C(C=C1)COC2=C(C=C(C=C2)CC3=CN=C(N=C3N)N)OC [GW-2580] + CS(=O)(=O)CCNCc1ccc(-c2ccc3ncnc(Nc4ccc(OCc5cccc(F)c5)c(Cl)c4)c3c2)o1 [Lapatinib] (partner 2 µM)
Summary of the method: as §1

Fedratinib + Luminespib = compound: Cc1cnc(Nc2ccc(OCCN3CCCC3)cc2)nc1Nc1cccc(S(=O)(=O)NC(C)(C)C)c1 [Fedratinib] + CCNC(=O)c1noc(-c2cc(C(C)C)c(O)cc2O)c1-c1ccc(CN2CCOCC2)cc1 [Luminespib] (partner 0.01 µM)
Summary of the method: as §1

GW-2580 + Tozasertib = compound: COC1=CC=C(C=C1)COC2=C(C=C(C=C2)CC3=CN=C(N=C3N)N)OC [GW-2580] + Cc1cc(Nc2cc(N3CCN(C)CC3)nc(Sc3ccc(NC(=O)C4CC4)cc3)n2)n[nH]1 [Tozasertib] (partner 0.1 µM)
Summary of the method: as §1

Fedratinib + Phenformin = compound: Cc1cnc(Nc2ccc(OCCN3CCCC3)cc2)nc1Nc1cccc(S(=O)(=O)NC(C)(C)C)c1 [Fedratinib] + N=C(N)NC(=N)NCCc1ccccc1 [Phenformin] (partner 250 µM)
Summary of the method: as §1

Cell Line | relative viability (Fedratinib + Palbociclib; first compound 0.1 µM) | relative viability (Fedratinib + Palbociclib; first compound 0.3162 µM) | relative viability (Fedratinib + Palbociclib; first compound 1 µM) | relative viability (Fedratinib + Alpelisib; first compound 0.1 µM) | relative viability (Fedratinib + Alpelisib; first compound 0.3162 µM) | relative viability (Fedratinib + Alpelisib; first compound 1 µM) | relative viability (GW-2580 + Lapatinib; first compound 0.08 µM) | relative viability (GW-2580 + Lapatinib; first compound 0.8 µM) | relative viability (GW-2580 + Lapatinib; first compound 2.53 µM) | relative viability (GW-2580 + Lapatinib; first compound 8 µM) | relative viability (Fedratinib + Luminespib; first compound 0.1 µM) | relative viability (Fedratinib + Luminespib; first compound 0.3162 µM) | relative viability (Fedratinib + Luminespib; first compound 1 µM) | relative viability (GW-2580 + Tozasertib; first compound 0.08 µM) | relative viability (GW-2580 + Tozasertib; first compound 0.8 µM) | relative viability (GW-2580 + Tozasertib; first compound 2.53 µM) | relative viability (GW-2580 + Tozasertib; first compound 8 µM) | relative viability (Fedratinib + Phenformin; first compound 0.1 µM) | relative viability (Fedratinib + Phenformin; first compound 0.3162 µM) | relative viability (Fedratinib + Phenformin; first compound 1 µM)
HARA | 0.261 | 0.301 | 0.214 | 0.84 | 0.793 | 0.743 | 0.757 | 0.902 | 0.535 | 0.63 | 0.103 | 0.766 | 0.539 | 0.111 | 0.127 | 0.0978 | 0.0792 | 0.364 | 0.448 | 0.411
NCI-H23 | 0.555 | 0.497 | 0.4 | 0.585 | 0.743 | 0.598 | 1.03 | 1.09 | 0.936 | 1.25 | 0.193 | 0.212 | 0.204 | 0.418 | 0.401 | 0.392 | 0.31 | 0.772 | 0.81 | 0.716
LCLC-97TM1 | 0.215 | 0.235 | 0.183 | 0.201 | 0.288 | 0.189 | 1.02 |  | 0.973 | 0.898 | 0.85 | 0.758 | 0.7 | 0.289 | 0.161 | 0.154 | 0.261 | 0.477 | 0.425 | 0.37
EPLC-272H | 0.318 | 0.339 | 0.365 | 1.05 | 0.915 | 0.914 | 1.13 | 1.04 | 0.886 | 0.916 | 0.208 | 0.167 | 0.205 | 0.321 | 0.266 |  | 0.214 | 0.3 | 0.32 | 0.173
NCI-H1915 | 0.505 | 0.498 | 0.422 | 1.03 | 1.04 | 0.943 | 1.13 | 1.05 | 1.04 | 1.03 | 0.823 | 0.754 | 0.734 | 0.469 | 0.44 | 0.489 | 0.387 | 0.374 | 0.361 | 0.298
NCI-H2405 | 0.486 | 0.536 | 0.463 | 0.626 | 0.824 | 0.698 | 1.05 | 1.16 | 1.02 | 0.912 | 0.57 | 0.701 | 0.562 | 0.8 | 0.726 | 0.656 | 0.524 | 0.315 | 0.412 | 0.446
NCI-H322M | 0.487 | 0.473 | 0.454 | 0.814 | 0.75 | 0.771 | 0.547 | 0.627 | 0.592 | 0.573 | 0.59 | 0.849 | 0.49 | 0.491 | 0.553 | 0.476 | 0.593 | 0.722 | 0.774 | 0.436
NCI-H2170 | 0.379 | 0.363 | 0.344 | 0.835 | 0.809 | 0.654 | 0.26 | 0.258 | 0.261 | 0.274 | 0.651 | 0.677 | 0.648 | 1.04 | 0.816 | 0.777 | 0.677 | 0.333 | 0.402 | 0.386
NCI-H1395 | 0.599 | 0.561 | 0.493 | 0.885 | 1 | 1.39 | 0.994 | 0.95 | 0.88 | 0.912 | 0.661 | 0.868 | 0.62 | 0.829 | 0.805 | 0.658 | 0.734 | 0.392 | 0.378 | 0.47
NCI-H358 | 0.131 | 0.0975 | 0.107 | 0.773 | 0.768 | 0.466 | 0.499 | 0.484 | 0.409 | 0.409 | 0.578 | 0.2 | 0.307 | 0.103 | 0.117 | 0.11 | 0.104 | 0.304 | 0.323 | 0.252
NCI-H838 | 0.197 | 0.228 | 0.164 | 0.979 | 0.954 | 0.954 | 0.994 | 1.11 | 0.789 | 0.987 | 0.454 | 0.379 | 0.334 | 0.291 | 0.341 | 0.295 | 0.248 | 0.468 | 0.67 | 0.414
CAL-12T | 0.295 | 0.411 | 0.446 | 1.13 | 1.16 | 1.06 | 0.601 | 0.662 | 0.545 | 0.735 | 0.175 | 0.617 | 0.361 | 0.422 | 0.365 | 0.349 | 0.297 | 0.597 | 0.611 | 0.526
